From PubChem BioAssay (NCI)
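Tested at 5 concentrations; 48 h exposure; 96-well plates; endpoints linearly interpolated, else capped at highest concentration. TGI marks complete inhibition of growth.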

Columns and labels:
Experiment in all cases: NCI anticancer screen, dose series, 48 h
KM20L2 colon = test system: KM20L2 colon
SW-620 colon = test system: SW-620 colon
SR leukemia = test system: SR leukemia
HCT-116 colon = test system: HCT-116 colon
SF-268 CNS = test system: SF-268 CNS
RPMI-8226 leukemia = test system: RPMI-8226 leukemia
OVCAR-8 ovarian = test system: OVCAR-8 ovarian
U251 CNS = test system: U251 CNS
EKVX NSCLC = test system: EKVX NSCLC
A549 NSCLC = test system: A549 NSCLC
NCI-H226 lung = test system: NCI-H226 lung
IGROV1 ovarian = test system: IGROV1 ovarian
SF-539 CNS = test system: SF-539 CNS
HT29 colon = test system: HT29 colon
HCC-2998 colon = test system: HCC-2998 colon
K-562 leukemia = test system: K-562 leukemia
OVCAR-3 ovarian = test system: OVCAR-3 ovarian
SNB-75 CNS = test system: SNB-75 CNS
COLO 205 colon = test system: COLO 205 colon
DMS 273 small cell lung = test system: DMS 273 small cell lung
DLD-1 colon = test system: DLD-1 colon
OVCAR-4 ovarian = test system: OVCAR-4 ovarian
SN12C renal = test system: SN12C renal
LXFL 529 NSCLC = test system: LXFL 529 NSCLC
SK-MEL-5 melanoma = test system: SK-MEL-5 melanoma
SNB-19 CNS = test system: SNB-19 CNS
DMS 114 small cell lung = test system: DMS 114 small cell lung
M14 melanoma = test system: M14 melanoma
NCI-H23 lung = test system: NCI-H23 lung
A498 renal = test system: A498 renal
UO-31 renal = test system: UO-31 renal
LOX IMVI melanoma = test system: LOX IMVI melanoma
NCI-H460 lung = test system: NCI-H460 lung
ACHN renal = test system: ACHN renal
MOLT-4 leukemia = test system: MOLT-4 leukemia
XF 498 CNS = test system: XF 498 CNS
MALME-3M melanoma = test system: MALME-3M melanoma
CCRF-CEM leukemia = test system: CCRF-CEM leukemia
786-0 renal = test system: 786-0 renal
HOP-62 NSCLC = test system: HOP-62 NSCLC
SK-MEL-28 melanoma = test system: SK-MEL-28 melanoma
HCT-15 colon = test system: HCT-15 colon
RXF 393 renal = test system: RXF 393 renal
SF-295 CNS = test system: SF-295 CNS
SK-MEL-2 melanoma = test system: SK-MEL-2 melanoma
TK-10 renal = test system: TK-10 renal
HL-60(TB) leukemia = test system: HL-60(TB) leukemia
UACC-62 melanoma = test system: UACC-62 melanoma
UACC-257 melanoma = test system: UACC-257 melanoma
M19-MEL melanoma = test system: M19-MEL melanoma
SNB-78 CNS = test system: SNB-78 CNS
SK-OV-3 ovarian = test system: SK-OV-3 ovarian
KM12 colon = test system: KM12 colon
HOP-92 NSCLC = test system: HOP-92 NSCLC
NCI-H522 lung = test system: NCI-H522 lung
CAKI-1 renal = test system: CAKI-1 renal
OVCAR-5 ovarian = test system: OVCAR-5 ovarian

Measured: TGI

CCOC(=O)C(C(CC(=O)OC)NC(=O)OCc1ccccc1)C1(C)OCCO1 (stereo not given)
not listed: M19-MEL melanoma | SNB-78 CNS | SK-OV-3 ovarian | KM12 colon | HOP-92 NSCLC | NCI-H522 lung | CAKI-1 renal | OVCAR-5 ovarian
> 100 µM: all other assays above

Cc1nc2c(n1CC(C)C)C(=O)c1ccccc1C2=O
45.4 µM: UACC-257 melanoma
65.7 µM: HOP-92 NSCLC
67.4 µM: HCT-116 colon
54.2 µM: NCI-H460 lung
34.7 µM: SK-MEL-5 melanoma
82.1 µM: OVCAR-3 ovarian
49.2 µM: NCI-H23 lung
50.5 µM: UACC-62 melanoma
97.7 µM: A549 NSCLC
76.5 µM: NCI-H522 lung
74.7 µM: SK-MEL-2 melanoma
40.6 µM: MALME-3M melanoma
29.6 µM: M19-MEL melanoma
87.6 µM: SF-539 CNS
95.9 µM: XF 498 CNS
not listed: RPMI-8226 leukemia | DMS 114 small cell lung | A498 renal | CAKI-1 renal | OVCAR-5 ovarian
> 100 µM: all other assays above

C=CCc1cc(OC)c2c(c1)C(OC(C)=O)CC(c1ccc(OC)c(OC)c1)O2 (stereo not given)
76.2 µM: HOP-92 NSCLC
58.6 µM: SNB-75 CNS
not listed: RPMI-8226 leukemia | OVCAR-8 ovarian | A498 renal | LOX IMVI melanoma | XF 498 CNS | 786-0 renal | RXF 393 renal | SK-MEL-2 melanoma
> 100 µM: all other assays above
